Here are results for 12 compounds from ChEMBL document CHEMBL5029177, “Synthetic enamine naphthoquinone derived from lawsone as cytotoxic agents assessed by in vitro and in silico evaluations” (Bioorg Med Chem Lett, 2021).

Each structure is given as a SMILES string. Activity calls are given as the source filed them. No cut-off for these calls is given here. Some results are limits rather than exact numbers.

Assay [1] relates to HCT-116. As to the kind of experiment: Antiproliferative activity against human HCT-116 cells assessed as reduction in cell viability by MTT assay. The class given is functional, cell-based. In general terms: Formazan colour is commonly taken as a measure of viable cells.
The subject of a further assay is PC-3. In words: Antiproliferative activity against human PC-3 cells assessed as reduction in cell viability by MTT assay. Format: functional, cell-based.
A further assay relates to HL-60. As to the kind of experiment: Antiproliferative activity against human HL-60 cells assessed as reduction in cell viability by MTT assay. The class given is functional, cell-based.
The subject of the next assay is SNB-19. As to the kind of experiment: Antiproliferative activity against human SNB-19 cells assessed as reduction in cell viability by MTT assay. The class given is functional, cell-based.
Assay [2] relates to HCT-116. In words: Induction of cell cycle arrest in human HCT-116 cells after 24 hrs by PI-staining based flow cytometric analysis. The class given is functional. In general terms: A flow cytometer gives signals particle by particle.
The subject of assay [3] is HCT-116. In words: Induction of cell cycle arrest in human HCT-116 cells assessed as accumulation at S phase at 20 uM after 24 hrs by PI-staining based flow cytometric analysis (reference value: 39.7%). The class given is functional.

As to `O=C1C=C(NCCCNc2ccnc3cc(Cl)ccc23)C(=O)c2ccccc21`, the IC50 (as a rule, the midpoint of a concentration-inhibition curve) with HCT-116 [1] worked out at 11.5 µM; in the assay on PC-3, 8.39 µM; in the assay with HL-60, 4.78 µM; in the assay on SNB-19 it was 16.9 µM. For the same compound, in the assay with HCT-116 [2], the result was inactive.

As to `CS(=O)(=O)OCCNC1=CC(=O)c2ccccc2C1=O`, the concentration for half-maximal inhibition (IC50) in the assay with HCT-116 [1] was 16.3 µM; in the assay with PC-3, 62.8 µM; in the assay on HL-60 it was 27.5 µM; with SNB-19 it was 31.2 µM.

In the case of `O=C1C=C(NCc2ccccn2)C(=O)c2ccccc21`, the IC50 with HCT-116 [1] came to 13.5 µM; in the assay with PC-3, 16.5 µM; in the assay with HL-60, 4.59 µM; in the assay on SNB-19 it was 23.1 µM. Also, the Activity in the assay on HCT-116 [3] is recorded as 47.57%.

For `O=C1C=C(NCCO)C(=O)c2ccccc21`, the concentration for half-maximal inhibition (IC50) in the assay with HCT-116 [1] was found to be 70.3 µM; with PC-3, 107 µM; in the assay with HL-60 it was 49.8 µM; with SNB-19 it was 108 µM.

`Cc1ccc(S(=O)(=O)OCCNC2=CC(=O)c3ccccc3C2=O)cc1`: the IC50 in the assay on HCT-116 [1] was 81.8 µM; in the assay with PC-3, 59.2 µM; in the assay on HL-60, over 200 µM; with SNB-19 it was 21.1 µM.

With `CNC1=CC(=O)c2ccccc2C1=O`, the IC50 was 55.7 µM with HCT-116 [1], 93.3 µM with PC-3, 41.4 µM in the assay with HL-60 and 114 µM in the assay with SNB-19.

`O=C1C=C(NCc2ccccc2)C(=O)c2ccccc21`: the half-inhibitory concentration (IC50) came out at 130 µM in the assay on HCT-116 [1], 70.6 µM in the assay on PC-3, 86.5 µM with HL-60 and 80 µM in the assay with SNB-19.

In the case of `O=c1[nH]cc(F)c(=O)[nH]1` [FLUOROURACIL], the IC50 came to 19.3 µM in the assay on HCT-116 [1] and 32.9 µM in the assay with PC-3. For the same compound, in the assay on HCT-116 [3], the Activity was 66.6%.

Regarding `O=C1C=C(N2CCCC2)C(=O)c2ccccc21`, the concentration for half-maximal inhibition (IC50) in the assay with HCT-116 [1] was 159 µM; with PC-3, over 200 µM; in the assay with HL-60, 111 µM; in the assay with SNB-19, over 200 µM.

Turning to `NCCCNC1=CC(=O)c2ccccc2C1=O`, the half-maximal inhibitory concentration (IC50) in the assay with HCT-116 [1] turned out to be 59.6 µM; with PC-3, 63.2 µM; with HL-60, 30 µM; in the assay with SNB-19, 71.3 µM.

With `O=C1C=C(NCCCNc2nc(N3CCOCC3)nc(N3CCOCC3)n2)C(=O)c2ccccc21`, the IC50 is 57.5 µM with HCT-116 [1], 41.8 µM in the assay on PC-3, 53.4 µM in the assay with HL-60 and 126 µM in the assay with SNB-19.

In the case of `COc1cccc2c1C(=O)c1c(O)c3c(c(O)c1C2=O)C[C@@](O)(C(=O)CO)C[C@@H]3O[C@H]1C[C@H](N)[C@H](O)[C@H](C)O1` [DOXORUBICIN], the concentration for half-maximal inhibition (IC50) with HL-60 was 2.05 µM; in the assay on SNB-19 it was 0.76 µM.
